Experimental data reported in paper PMC4145669, “The structure, function and properties of sirohaem decarboxylase - an enzyme with structural homology to a transcription factor family that is part of the alternative haem biosynthesis pathway” (Molecular Microbiology, 2014).
Like-named read-outs stand apart in the source and are kept apart here.

Target: T1, D. desulfuricans AhbA/B (sirohaem decarboxylase) (Desulfovibrio desulfuricans, UniProt B8J364+B8J3A4)
T1 construct: gene Ddes_0286; full-length AhbA (untagged) and AhbB with N-terminal hexa-His tag (kept), coexpressed in E. coli; heterodimer, 40 kDa by gel filtration
T1 sequence (B8J364 1-173): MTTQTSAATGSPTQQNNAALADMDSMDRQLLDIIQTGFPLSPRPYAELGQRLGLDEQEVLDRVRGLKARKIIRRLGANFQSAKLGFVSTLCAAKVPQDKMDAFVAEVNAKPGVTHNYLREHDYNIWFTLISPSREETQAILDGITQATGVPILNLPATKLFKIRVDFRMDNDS
T1 sequence (B8J3A4 1-159): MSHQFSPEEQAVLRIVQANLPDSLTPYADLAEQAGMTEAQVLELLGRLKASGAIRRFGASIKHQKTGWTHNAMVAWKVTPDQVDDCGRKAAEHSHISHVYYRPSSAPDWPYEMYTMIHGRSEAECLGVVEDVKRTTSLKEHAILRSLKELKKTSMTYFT
Assay: anaerobic stopped assay, MS quantification, global fit
Assay type: biochemical
Conditions: competitive model of both substrates and product, single active site, 23 μM sirohaem, 2.3 μM enzyme

| Substance | Km (intermediate formed in situ from sirohaem, read-out: Km2) [µM] | Km (read-out: Km1) [µM] |
| --- | --- | --- |
| monodecarboxysirohaem [MDSH] | 9.94 ± 1.19 | – |
| sirohaem [SH] | – | 11.7 ± 3.36 |
